What was measured:
Assay type in all cases: in vivo, ICR male mice
[1] = system: model animal with acute colitis induced by TNBS; test: Acute colitis induced by TNBS in mice: weight change, macroscopic score, colon length, MPO activity, 4th experiment (Timosaponin A-III); details: FIGS. 38 to 41; 10 and 20 mg/mouse kg orally
Description: 4-week ICR male mice (24 to 27 g) were purchased from OrientBio. All the mice were bred under the controlled environmental conditions of 50±10% of humidity and 25±2° C. of temperature, and the lighting was repeatedly on for 12 hours and off for 12 hours. A feed for a standard experiment (Samyang, Korea) was used as a feed, and water was freely taken. For all the experiments, one group was 6 mice.
(2) Induction of acute colitis by TNBS and sample administration Among the experimental groups, one group was set as a normal group, and for the experimental animals in other groups, colitis was induced with 2,4,6-trinitrobenzenesulfonic acid (TNBS). […]
The sample administration to the model animals with acute colitis induced by TNBS was stopped, and at the next day, the weights of the experimental animals were measured, and then, the measured weights were compared with the initial weights to calculate the change amounts of weights […]
200 μl of lysis buffer was added to 100 mg of colon tissue, and then, the colon tissue was homogenized. […] In the supernatant, the MPO activity was measured using a mouse MPO assay ELISA kit (Hbt HK210, USA). […]

[2] = system: model animal with acute colitis induced by TNBS; test: Acute colitis induced by TNBS in mice, appearance analysis of colon (colon length, macroscopic score), first experiment; details: Table 3 (group 2), TNBS-treated mice, 3 days; for Macroscopic score (Mean score): score 0-5
Description: 4-week ICR male mice (24 to 27 g) were purchased from OrientBio. All the mice were bred under the controlled environmental conditions of 50±10% of humidity and 25±2° C. of temperature, and the lighting was repeatedly on for 12 hours and off for 12 hours. A feed for a standard experiment (Samyang, Korea) was used as a feed, and water was freely taken. For all the experiments, one group was 6 mice. […] Meanwhile, 0.1 ml of normal saline solution was orally administered to the normal group. Since then, from the next day, the sample dissolved in normal saline solution was orally administered in the volume that was decided in advance one time a day for 3 days. At the next day after completing the sample administration, the experimental animals were suffocated to death with carbon dioxide, the colon from appendix to the region just before the anus was removed from the colon region. The scores about the removed colons were estimated by observing the appearances and the lengths of the colons according to the following criteria (Hollenbach, and the like, the criteria about the level of colon in 2005) as listed in Table 1. […] In addition, some of the content in the colon was collected in order to analyze the rumen microorganisms, and then, was stored in a freezer of −80° C. From the tissue of colon, the content in the colon was completely removed and then the tissue of colon was washed with normal saline solution. Since then, some of the tissue was fixed with 4% formaldehyde fixing solution in order to be used as a sample for a histopathological examination, and the rest was stored in a freezer of −80° C. for a molecular biological analysis.

Myeloperoxidase (MPO) = test: MPO activity of colon tissue (mouse MPO ELISA kit), TNBS colitis, first experiment; details: Table 3 (group 2), TNBS-treated mice, 3 days
Description: (§1) Among the experimental groups, one group was set as a normal group, and for the experimental animals in other groups, colitis was induced with 2,4,6-trinitrobenzenesulfonic acid (TNBS). In detail, after lightly anesthetizing the experimental animals with ether, 0.1 ml of the solution prepared by mixing […] of 2,4,6-Trinitrobenzene sulfonic acid (NBS) solution with 50% ethanol was injected into the colon through the anus using a syringe having 1 ml volume and oval point, respectively; and then, the syringe was vertically picked up, and then, maintained for 30 seconds to induce the inflammation. Meanwhile, 0.1 ml of normal saline solution was orally administered to the normal group. Since then, from the next day, the sample dissolved in normal saline solution was orally administered in the volume that was decided in advance one time a day for 3 days. At the next day after completing the sample administration, the experimental animals were suffocated to death with carbon dioxide, the colon from appendix to the region just before the anus was removed from the colon region.
200 μl of lysis buffer was added to 100 mg of colon tissue, and then, the colon tissue was homogenized. Since then, the homogenized colon tissue was centrifuged under the conditions of 4° C. and 13000 rpm for 15 minutes, and then, the supernatant thereof was obtained. In the supernatant, the MPO activity was measured using a mouse MPO assay ELISA kit (Hbt HK210, USA). 100 μl of the supernatant was added in a 96 well plate, and then, reacted at room temperature for 1 hour. After completing the reaction, the plate was overturned and emptied; was repeatedly washed three times with 200 μl of washing buffer solution; 100 μl of diluted tracer was added thereto; and then the reaction was performed at room temperature for 1 hour. After completing the reaction, the plate was overturned and emptied; and then each well in the plate was washed using 200 μl of washing buffer solution. After repeatedly performing the washing processes three times using 200 μl of washing buffer solution, 100 μl of diluted streptavidin-peroxidase conjugate was added thereto, and then, the reaction was performed at room temperature for 1 hour. After completing the reaction, the plate was overturned and emptied, and then, each well in the plate was washed with 200 μl of washing buffer solution. After the washing processes were repeatedly performed three times using 200 μl of washing buffer solution, 100 μl of TMB substrate solution was added thereto; the plate was wrapped in an aluminum foil to block out the light; and then, the reaction was performed at room temperature for 30 minutes. Since then, 100 μl of a stop solution was added to stop the reaction, and then, the absorbance was measured at 450 nm using an ELISA reader.

IL-1 beta = IL-1 beta expression in colon tissue (ELISA), TNBS colitis, first experiment; details: Table 5 (group 2), TNBS-treated mice, 3 days
Description: as §1
(§2) 250 μl of RIPA butter including protease inhibitor cocktail was added to 100 mg of the colon tissue of experimental animal, and then, the colon tissue was homogenized. Since then, the homogenized colon tissue was centrifuged under the conditions of 4° C. and 13000 rpm for 15 minutes to obtain supernatant. While the supernatant was stored at −80° C., the expression amounts of IL-1 beta, IL-6, and TNF-alpha were measured using a 96-well ELISA plate kits (Pierce Biotechology, Inc., Rockford, Ill., USA).

IL-6 = IL-6 expression in colon tissue (ELISA), TNBS colitis, first experiment; details: Table 5 (group 2), TNBS-treated mice, 3 days
Description: as §1, §2

TNF-alpha = TNF-alpha expression in colon tissue (ELISA), TNBS colitis, first experiment; details: Table 5 (group 2), TNBS-treated mice, 3 days
Description: as §1, §2

Row | Structure (SMILES) | effect on alleviating or improving acute colitis induced by TNBS (weight change, macroscopic score, colon length, MPO activity; in words) [1] | Colon length ([2]; 10 mg/kg orally) [cm] | Macroscopic score (Mean score) ([2]; 10 mg/kg orally) | MPO activity (Myeloperoxidase (MPO); 10 mg/kg orally) [μUnit/mg] | IL-1 beta conc. (IL-1 beta; 10 mg/kg orally) [pg/mg] | IL-6 conc. (IL-6; 10 mg/kg orally) [pg/mg] | TNF-alpha conc. (TNF-alpha; 10 mg/kg orally) [pg/mg] | Colon length ([2]; 20 mg/kg orally) [cm] | Macroscopic score (Mean score) ([2]; 20 mg/kg orally) | MPO activity (Myeloperoxidase (MPO); 20 mg/kg orally) [μUnit/mg] | IL-1 beta conc. (IL-1 beta; 20 mg/kg orally) [pg/mg] | IL-6 conc. (IL-6; 20 mg/kg orally) [pg/mg] | TNF-alpha conc. (TNF-alpha; 20 mg/kg orally) [pg/mg]
1 | C[C@H]1CC[C@@]2(OC1)O[C@H]1C[C@H]3[C@@H]4CC[C@@H]5C[C@@H](O[C@@H]6O[C@H](CO)[C@H](O)[C@H](O)[C@H]6O[C@@H]6O[C@H](CO)[C@@H](O)[C@H](O)[C@H]6O)CC[C@]5(C)[C@H]4CC[C@]3(C)[C@H]1[C@@H]2C [Timosaponin A-III] | effect on alleviating or improving acute colitis induced by TNBS according to the concentration dependent | – | – | – | – | – | – | – | – | – | – | – | –
2 | O=c1c2cc(O[C@@H]3O[C@H](CO)[C@@H](O)[C@H](O)[C@H]3O)c(O)cc2oc2cc(O)c([C@@H]3O[C@H](CO)[C@@H](O)[C@H](O)[C@H]3O)c(O)c12 [neomangiferin, Neomangiferin] | – | 5.78 ± 0.10 | 2.8 ± 0.51 | 0.6 ± 0.2 | 62.2 ± 5.1 | 6.9 ± 1.2 | 93.6 ± 9.2 | – | – | – | – | – | –
3 | O=c1c2cc(O)c(O)cc2oc2cc(O)c([C@@H]3O[C@H](CO)[C@@H](O)[C@H](O)[C@H]3O)c(O)c12 [mangiferin, Mangiferin] | – | 5.81 ± 0.09 | 2.7 ± 0.45 | 0.5 ± 0.2 | 57.4 ± 2.1 | 5.0 ± 0.6 | 83.8 ± 10.9 | 6.98 ± 0.21 | 1.7 ± 0.27 | 0.2 ± 0.2 | 28.1 ± 12.1 | 2.2 ± 0.8 | 40.8 ± 10.9

— patent publication US20170368089A1, “COMPOSITION FOR PREVENTING OR TREATING COLITIS” (UNIVERSITY-INDUSTRY COOPERATION GROUP OF KYUNG HEE …, priority 2012, published 2017)
